Counter-ions that a name gives are not always drawn.
Legend:
[1] = tested on: uterine activity of anesthetized pregnant rats; assay: Uterine motility of anesthetized pregnant rats (balloon method); type: in vivo, rat; details: uterine motility, intravenous cumulative dosing every 15 minutes, urethane-anesthetized pregnant rats
Method: Rats were anesthetized with urethane, and experiments were conducted based on balloon method. Uterine activity and mean blood pressure of dam were led to a pressure amplifier via a pressure transducer. As for heart rate, pulse waves were led to tachometer. Recti-graphs were used for recording. The test substance, control substance, or positive control substance was administered intravenously and cumulatively every 15 minutes, while doses were increased gradually.

[2] = tested on: uterine muscles isolated from pregnant rabbits; assay: Oxytocin-induced contractions of isolated uterine muscles of pregnant rabbits (organ bath); type: cell-based, rabbit; details: oxytocin (1 mU/mL)-induced contractions, pregnant rabbit uterine muscles; for EC50: Oryctolagus cuniculus, read-out: pD2 values (converted)
Method: (§1) Uterine muscles of pregnant rabbits were isolated, and experiments were conducted based on organ-bath method. After specimens of uterine muscles were suspended and oxytocin (1 mU/mL)-induced contractions was stabilized, the test substance, control substance or positive control substance was administered every 10 min, while doses were increased gradually. Efficacy of drugs was evaluated by comparing the sum of uterine contraction for 10 min before and after administration of drugs, defining the former as 100%.

[3] = tested on: uterine muscles isolated from pregnant rabbits; assay: Spontaneous contractions of isolated uterine muscles of pregnant rabbits (organ bath); type: cell-based, rabbit; details: spontaneous contractions, pregnant rabbit uterine muscles; for EC50: Oryctolagus cuniculus, read-out: pD2 values (converted)
Method: as §1, with “spontaneous” for “oxytocin (1 mU/mL)-induced”

[4] = tested on: uterine muscle isolated from pregnant rats; assay: Spontaneous contractions of uterine muscle isolated from pregnant rats (organ bath); type: cell-based; details: pregnant rat uterine muscle, mean ± standard error, 10 samples
Method: The experimental operation of this study was as reported by T. Kawarabayashi et al.^1 After each SD-strain rat on Day 21 of pregnancy were exsanguinated to death, the uterus was isolated to prepare up to 8 myometrial strips (about 4 mm×10 mm) in the direction of the longitudinal muscle, with the adhesion to the placenta being avoided.
Each myometrial strip was suspended in an organ bath containing 10 mL of a Locke-Ringer solution at 37° C. (aerated with 95% O2+5% CO2 gas) with a load of about 1.0 g. After the amplitude and frequency of the muscular spontaneous contractions became stable, distilled water was added. Five minutes later, the test, control, or positive control substance was added cumulatively with intervals of 5 minutes. The myometrial contractile force was delivered to a strain pressure amplifier through a force displacement transducer and recorded on a Rectigraph.
Considering the sum of the uterine contraction during 5 minutes after the addition of distilled water as 100%, the response rate to each concentration of the test, control, or positive control substance was calculated from the sum of the uterine contraction after each was added. Variable points (peaks) with amplitude (tension) of 0.2 g or lower were excluded from analysis. Samples showing any of the following events were not used for the study or excluded from analysis.
Microsoft® Excel 2000 (Microsoft Corp.) was used to sum up and analyze data and prepare tables and figures. Using a concentration-response curve obtained for each sample (X axis: log value of the concentration of the drug added, Y axis: response rate), a negative log value (pD2) of the concentration that inhibited the uterine contraction by 50% (EC50) was calculated from a straight line that connects the 2 concentrations above and below 50%, and converted to EC50.

[5] = tested on: uterine muscle isolated from pregnant rats; assay: PG F2α-induced contraction of uterine muscle isolated from pregnant rats; type: cell-based, rat; details: contraction induced with 5 μg/mL of PG F2α, mean ± standard error of 10 samples
Method: (§2) After SD-strain rats on Day 17 of pregnancy were exsanguinated to death, the uterus was isolated to prepare up to 8 myometrial strips (about 4 mm×10 mm) per animal in the direction of the longitudinal muscle while avoiding the adhesion to the placenta. Each strip was suspended in an organ bath containing 10 mL of a modified Locke-Ringer solution at […] (aerated with 95% O2+5% CO2 gas) with a load of about 1.0 g. After the suspended sample became stable for static tension, 5 μg/mL of PG F2α or 1 mU/mL of oxytocin was added to induce contraction. After the sample was allowed to stand for at least 30 minutes to confirm stable rhythmic contraction for frequency and amplitude, the test, control, or positive control substance solution was added cumulatively at intervals of 5 minutes. After the treatment was completed, 1×10^−5 mol/L of forskolin was added to obtain maximal relaxation. The contractile force of the uterine sample was delivered via a force displacement transducer to a strain pressure amplifier and recorded on a Rectigraph.
(§3) Considering the sum of the uterine contraction for 5 minutes before treatment as 100%, the response rate to each concentration of the test, control, or positive control substance solution was calculated from the sum of uterine contraction after treatment for both PG F2α and oxytocin induced contraction. Then, the response rates obtained were used to prepare a concentration-response curve for each sample. The maximum relaxation obtained by adding forskolin was considered as a baseline. Variable points (peaks) with amplitude (tension) of […] or lower were excluded from analysis. Samples showing any of the following events were not used for the study or excluded from analysis.
(§4) Microsoft® Excel 2000 (Microsoft Corp.) was used to sum up and calculate data and prepare tables and figures. Using a concentration-response curve prepared for each sample (X axis: log value of the concentration of the substance added, Y axis: response rate), a negative log value (pEC50) of the concentration that inhibited the uterine contraction by 50% (EC50) was calculated from a straight line connecting the 2 concentrations just above and below 50%, and then converted to EC50 (unit: mol/L).

[6] = tested on: uterine muscle isolated from pregnant rats; assay: Oxytocin-induced contraction of uterine muscle isolated from pregnant rats; type: cell-based, rat; details: contraction induced with 1 mU/mL of oxytocin, mean ± standard error of 10 samples
Method: as §2, §3, §4

[7] = tested on: uterine muscle isolated from pregnant rats; assay: Interaction of MN-221 and β-adrenoceptor antagonists on spontaneous contraction of uterine muscle isolated from pregnant rats (Schild regression); type: cell-based, rat
Method: The experimental operation of this study was as reported by T. Kawarabayashi et al.^4. After each SD-strain rat on Day 21 of pregnancy was exsanguinated to death, the uterus was isolated to prepare 8 myometrial samples (about 4 mm×10 mm) in the direction of the longitudinal muscle, with the adhesion to the placenta being avoided. Each myometrial sample was suspended with a load of about 1.0 g in an organ bath containing 10 mL of the Locke-Ringer solution at 37° C. […] After the suspended samples became stable for the amplitude and frequency of spontaneous contraction, each antagonist or distilled water was added to the bath to pretreat them for about 15 minutes. […] The contractile force of each sample was outputted through a force displacement transducer to a strain pressure amplifier and recorded with a rectigraph.
Any variable point (peak) with amplitude (tension) of 0.2 g or lower was excluded from analysis. Samples meeting any of the following criteria were rejected or removed from analysis.
Microsoft® Excel 2000 (Microsoft Corp.) was used for summing up or calculating data and preparing figures and tables. […] This EC50 value was used to calculate the concentration ratio (CR) of EC50 when an antagonist was added (for each sample) to that when no antagonist was added (mean value of the whole control group) and the logarithmic value of CR-1 (log [CR-1]).
Then, the added concentration of the antagonist was plotted on the X axis (logarithmic value) and log(CR-1) on the Y axis (Schild plot) to calculate the value of the X-axis intercept (pA2) and slope of the line using linear approximation (Schild regression^5). The slope was statistically compared with a slope of 1 (paired t-test; a probability level of less than 5% was considered significant). […] The mean and standard error were calculated for each data point obtained and indicated to two decimal places (or in 3 significant digit).

[8] = Rattus norvegicus, read-out: EC50
[9] = Rattus norvegicus, read-out: pEC50 (converted)

Row | Compound | EC50 ([4]; read-out: EC50) [nM] | EC50 [2] [nM] | EC50 [3] [nM] | ED30 values [1] [µg/kg/min] | pD2 values [2] | pD2 values [3] | other results
1 | CC(C)(C)NC[C@H](O)c1ccc(O)cc1Cl.O=C(O)C(O)C(O)C(=O)O [HSR-81, meluadrine tartrate] |  |  |  | 0.56 | 8.12 ± 0.21 | 8.21 ± 0.26 | 
2 | CC(NCCc1ccc(O)cc1)C(O)c1ccc(O)cc1 (racemic) [Ritodrine hydrochloride, (±)-erythro-1-(p-hydroxyphenyl)-2-[2-(p-hydroxyphenyl)ethylamino]-1-propanol hydrochloride] | 39.8 ± 13.3 | 77.6 | 135 | 51.45 |  |  | EC50 ([4]; read-out: pD2 (converted)): 25.7 nM; EC50 [5, 8]: 3430 ± 720 nM; EC50 [5, 9]: 2630 nM; EC50 [6, 8]: 133 ± 16.8 nM; EC50 [6, 9]: 120 nM
3 | CCc1ccccc1OC[C@@H](O)CN[C@H]1CCCc2ccccc21 [SR 59230A, reference compound] |  |  |  |  |  |  | antagonistic effect on the effect of MN-221 ([7]; at a concentration of up to 3×10^−8 mol/L): no evident antagonistic effect
4 | Cn1cc(C(F)(F)F)nc1-c1ccc(OCC(O)CNCCOc2ccc(O)c(C(N)=O)c2)cc1 (stereo not shown) [CGP 20712A, reference compound] |  |  |  |  |  |  | antagonistic effect on the effect of MN-221 ([7]; at a concentration of up to 1×10^−8 mol/L): no evident antagonistic effect

Further lines, with some results ahead:

Row | EC50 ([4]; read-out: EC50) [nM] | EC50 [2] [nM] | EC50 [3] [nM] | Compound | ED30 values [1] [µg/kg/min] | pD2 values [2] | pD2 values [3] | other results
5 | 0.42 ± 0.1 |  |  | isoproterenol bitartrate |  | 8.53 ± 0.21 | 8.69 ± 0.17 | pD2 [4]: 9.52±0.13; pEC50 [5]: 8.32±0.05; EC50 ([5]; read-out: EC50): 5.1 ± 0.633 nM; pEC50 [6]: 9.27±0.03; EC50 ([6]; read-out: EC50): 0.556 ± 0.0412 nM
6 |  | 40.7 | 89.1 | CC(C)(C)NCC(O)c1cc(O)cc(O)c1 (stereo not shown) [Terbutaline sulfate, terbutaline sulfate] | 0.72 |  |  | 
